The text below walks through data of ChEMBL document CHEMBL3997820, “Synthesis and evaluation of anticonvulsant properties of new N-Mannich bases derived from pyrrolidine-2,5-dione and its 3-methyl-, 3-isopropyl, and 3-benzhydryl analogs” (Bioorg Med Chem Lett, 2017).

Active and inactive are the calls of the source. The rule behind the calls is not given here.

The first data set relates to Mus musculus. The experiment in a line: Anticonvulsant activity in albino CD1 mouse assessed as protection against subcutaneous pentylenetetrazole-induced seizures at 300 mg/kg, ip measured after 4 hrs. It counts as functional, organism-based.
Settings: not given
Consider `O=C1CCC(=O)N1CN1CCN(CCO)CC1`, for which the outcome was inactive.

Consider `CC1CC(=O)N(CN2CCOCC2)C1=O` (centres undefined), for which the result was inactive.

`CC(C)C1CC(=O)N(CN2CCC(Cc3ccccc3)CC2)C1=O` (centres undefined): the result was inactive.

With `CC1CC(=O)N(CN2CCN(C3CCCCC3)CC2)C1=O` (centres undefined), the outcome was inactive.

As to `CC1CC(=O)N(CN2CCN(c3ncccn3)CC2)C1=O` (centres undefined), the outcome was inactive.

On to `CN1CCN(CN2C(=O)CCC2=O)CC1`, for which the outcome was inactive.

As to `CC1CC(=O)N(CN2CCC(Cc3ccccc3)CC2)C1=O` (centres undefined), the outcome was inactive.

For `O=C1CCC(=O)N1CN1CCN(Cc2ccccc2)CC1`, the outcome was inactive.

As to `CC(C)C1CC(=O)N(CN2CCN(c3ncccn3)CC2)C1=O` (centres undefined), the outcome was inactive.

Take `O=C1CCC(=O)N1CN1CCN(c2ncccn2)CC1`: the result was inactive.

Take `O=C1CC(C(c2ccccc2)c2ccccc2)C(=O)N1CN1CCC(Cc2ccccc2)CC1` (centres undefined): the result was inactive.

Consider `CC(C)C1CC(=O)N(CN2CCN(Cc3ccccc3)CC2)C1=O` (centres undefined), for which the outcome was inactive.

With `O=C1CCC(=O)N1CN1CCC(Cc2ccccc2)CC1`, the outcome was inactive.

As for `CC1CC(=O)N(CN2CCN(CCO)CC2)C1=O` (centres undefined), the result was inactive.

A further data set relates to Mus musculus. As to the kind of experiment: Anticonvulsant activity in albino CD1 mouse assessed as protection against subcutaneous pentylenetetrazole-induced seizures at 300 mg/kg, ip measured after 0.5 hrs. The format is functional, organism-based.
Settings: not given
On to `O=C1CCC(=O)N1CN1CCN(CCO)CC1`, for which the result was inactive.

`CC1CC(=O)N(CN2CCOCC2)C1=O` (centres undefined): the outcome was inactive.

In the case of `CC(C)C1CC(=O)N(CN2CCC(Cc3ccccc3)CC2)C1=O` (centres undefined), the result was inactive.

`CC1CC(=O)N(CN2CCN(C3CCCCC3)CC2)C1=O` (centres undefined): the result was inactive.

As for `CC1CC(=O)N(CN2CCN(c3ncccn3)CC2)C1=O` (centres undefined), the result was inactive.

For `CN1CCN(CN2C(=O)CCC2=O)CC1`, the outcome was inactive.

For `CC1CC(=O)N(CN2CCC(Cc3ccccc3)CC2)C1=O` (centres undefined), the outcome was inactive.

For the molecule `O=C1CCC(=O)N1CN1CCN(Cc2ccccc2)CC1`, the result was inactive.

Take `CC(C)C1CC(=O)N(CN2CCN(c3ncccn3)CC2)C1=O` (centres undefined): the outcome was inactive.

For `O=C1CCC(=O)N1CN1CCN(c2ncccn2)CC1`, the outcome was inactive.

With `O=C1CC(C(c2ccccc2)c2ccccc2)C(=O)N1CN1CCC(Cc2ccccc2)CC1` (centres undefined), the result was inactive.

With `CC(C)C1CC(=O)N(CN2CCN(Cc3ccccc3)CC2)C1=O` (centres undefined), the result was inactive.

For `O=C1CCC(=O)N1CN1CCC(Cc2ccccc2)CC1`, the outcome was inactive.

For the molecule `CC1CC(=O)N(CN2CCN(CCO)CC2)C1=O` (centres undefined), the outcome was inactive.

For the next data set, the system named is Mus musculus. As to the kind of experiment: Neurotoxicity in albino CD1 mouse assessed as motor impairment at 300 mg/kg, ip measured after 0.5 hrs by rotarod test. The conditions noted are these: in vivo. The format is toxicity, organism-based.
Consider `O=C1CCC(=O)N1CN1CCN(CCO)CC1`, for which the Activity result was “Non-Toxic”.

In the case of `CC1CC(=O)N(CN2CCOCC2)C1=O` (centres undefined), the Activity result is “Non-Toxic”.

Take `CC(C)C1CC(=O)N(CN2CCC(Cc3ccccc3)CC2)C1=O` (centres undefined): the Activity result is listed as “Non-Toxic”.

For `CC1CC(=O)N(CN2CCN(C3CCCCC3)CC2)C1=O` (centres undefined), the Activity entry is listed as “Non-Toxic”.

In the case of `CC1CC(=O)N(CN2CCN(c3ncccn3)CC2)C1=O` (centres undefined), the Activity result is “Non-Toxic”.

For the molecule `CN1CCN(CN2C(=O)CCC2=O)CC1`, the Activity entry is given as “Non-Toxic”.

For the molecule `CC1CC(=O)N(CN2CCC(Cc3ccccc3)CC2)C1=O` (centres undefined), the Activity result is given as “Non-Toxic”.

As to `O=C1CCC(=O)N1CN1CCN(Cc2ccccc2)CC1`, the Activity result is reported as “Non-Toxic”.

On to `CC(C)C1CC(=O)N(CN2CCN(c3ncccn3)CC2)C1=O` (centres undefined), for which the Activity result is “Non-Toxic”.

Turning to `O=C1CCC(=O)N1CN1CCN(c2ncccn2)CC1`, the Activity result is reported as “Non-Toxic”.

As for `O=C1CC(C(c2ccccc2)c2ccccc2)C(=O)N1CN1CCC(Cc2ccccc2)CC1` (centres undefined), the Activity entry is given as “Non-Toxic”.

With `CC(C)C1CC(=O)N(CN2CCN(Cc3ccccc3)CC2)C1=O` (centres undefined), the Activity result is “Non-Toxic”.

For the molecule `O=C1CCC(=O)N1CN1CCC(Cc2ccccc2)CC1`, the Activity result is “Non-Toxic”.

Take `CC1CC(=O)N(CN2CCN(CCO)CC2)C1=O` (centres undefined): the Activity result is “Non-Toxic”.

In another data set the test system is Mus musculus. As to the kind of experiment: Anticonvulsant activity in albino CD1 mouse assessed as protection against maximal electroshock-induced seizures at 300 mg/kg, ip measured after 4 hrs. It counts as functional, organism-based.
Settings: not given
In general terms: In the maximal electroshock model the usual endpoint is tonic extension of the hind limbs.
Regarding `O=C1CCC(=O)N1CN1CCN(CCO)CC1`, the outcome was inactive.

With `CC1CC(=O)N(CN2CCOCC2)C1=O` (centres undefined), the result was inactive.

As to `CC(C)C1CC(=O)N(CN2CCC(Cc3ccccc3)CC2)C1=O` (centres undefined), the outcome was inactive.

Regarding `CC1CC(=O)N(CN2CCN(C3CCCCC3)CC2)C1=O` (centres undefined), the outcome was inactive.

For the molecule `CC1CC(=O)N(CN2CCN(c3ncccn3)CC2)C1=O` (centres undefined), the result was inactive.

With `CN1CCN(CN2C(=O)CCC2=O)CC1`, the outcome was inactive.

With `CC1CC(=O)N(CN2CCC(Cc3ccccc3)CC2)C1=O` (centres undefined), the result was inactive.

Take `O=C1CCC(=O)N1CN1CCN(Cc2ccccc2)CC1`: the result was inactive.

For `CC(C)C1CC(=O)N(CN2CCN(c3ncccn3)CC2)C1=O` (centres undefined), the result was inactive.

With `O=C1CCC(=O)N1CN1CCN(c2ncccn2)CC1`, the outcome was inactive.

On to `O=C1CC(C(c2ccccc2)c2ccccc2)C(=O)N1CN1CCC(Cc2ccccc2)CC1` (centres undefined), for which the outcome was inactive.

In the case of `CC(C)C1CC(=O)N(CN2CCN(Cc3ccccc3)CC2)C1=O` (centres undefined), the outcome was inactive.

In the case of `O=C1CCC(=O)N1CN1CCC(Cc2ccccc2)CC1`, the outcome was inactive.

Regarding `CC1CC(=O)N(CN2CCN(CCO)CC2)C1=O` (centres undefined), the result was inactive.

The next data set concerns Mus musculus. The experiment in a line: Anticonvulsant activity in albino CD1 mouse assessed as protection against maximal electroshock-induced seizures at 300 mg/kg, ip measured after 0.5 hrs. The format is functional, organism-based.
Settings: not given
For `O=C1CCC(=O)N1CN1CCN(CCO)CC1`, the result was inactive.

For the molecule `CC1CC(=O)N(CN2CCOCC2)C1=O` (centres undefined), the outcome was inactive.

Consider `CC(C)C1CC(=O)N(CN2CCC(Cc3ccccc3)CC2)C1=O` (centres undefined), for which the outcome was inactive.

Consider `CC1CC(=O)N(CN2CCN(C3CCCCC3)CC2)C1=O` (centres undefined), for which the result was inactive.

Consider `CC1CC(=O)N(CN2CCN(c3ncccn3)CC2)C1=O` (centres undefined), for which the outcome was inactive.

Consider `CN1CCN(CN2C(=O)CCC2=O)CC1`, for which the outcome was inactive.

For `CC1CC(=O)N(CN2CCC(Cc3ccccc3)CC2)C1=O` (centres undefined), the outcome was inactive.

`O=C1CCC(=O)N1CN1CCN(Cc2ccccc2)CC1`: the outcome was inactive.

As to `CC(C)C1CC(=O)N(CN2CCN(c3ncccn3)CC2)C1=O` (centres undefined), the result was inactive.

Consider `O=C1CCC(=O)N1CN1CCN(c2ncccn2)CC1`, for which the result was inactive.

As for `O=C1CC(C(c2ccccc2)c2ccccc2)C(=O)N1CN1CCC(Cc2ccccc2)CC1` (centres undefined), the outcome was inactive.

For `CC(C)C1CC(=O)N(CN2CCN(Cc3ccccc3)CC2)C1=O` (centres undefined), the result was inactive.

With `O=C1CCC(=O)N1CN1CCC(Cc2ccccc2)CC1`, the outcome was inactive.

For `CC1CC(=O)N(CN2CCN(CCO)CC2)C1=O` (centres undefined), the result was inactive.

The test system of another data set is Mus musculus. The experiment in a line: Neurotoxicity in albino CD1 mouse assessed as motor impairment at 300 mg/kg, ip measured after 4 hrs by rotarod test. The format is toxicity, organism-based. The following applies: in vivo. On the technique in general: Falling from the rotarod earlier than controls is read as motor impairment.
As to `O=C1CCC(=O)N1CN1CCN(CCO)CC1`, the Activity entry is “Non-Toxic”.

In the case of `CC1CC(=O)N(CN2CCOCC2)C1=O` (centres undefined), the Activity result is “Non-Toxic”.

Take `CC(C)C1CC(=O)N(CN2CCC(Cc3ccccc3)CC2)C1=O` (centres undefined): the Activity result is on record as “Non-Toxic”.

`CC1CC(=O)N(CN2CCN(C3CCCCC3)CC2)C1=O` (centres undefined): the Activity entry is reported as “Non-Toxic”.

`CC1CC(=O)N(CN2CCN(c3ncccn3)CC2)C1=O` (centres undefined): the Activity entry is given as “Non-Toxic”.

For `CN1CCN(CN2C(=O)CCC2=O)CC1`, the Activity entry is recorded as “Non-Toxic”.

As for `CC1CC(=O)N(CN2CCC(Cc3ccccc3)CC2)C1=O` (centres undefined), the Activity result is reported as “Non-Toxic”.

Turning to `O=C1CCC(=O)N1CN1CCN(Cc2ccccc2)CC1`, the Activity result is recorded as “Non-Toxic”.

Consider `CC(C)C1CC(=O)N(CN2CCN(c3ncccn3)CC2)C1=O` (centres undefined), for which the Activity entry is “Non-Toxic”.

`O=C1CCC(=O)N1CN1CCN(c2ncccn2)CC1`: the Activity result is “Non-Toxic”.

Consider `O=C1CC(C(c2ccccc2)c2ccccc2)C(=O)N1CN1CCC(Cc2ccccc2)CC1` (centres undefined), for which the Activity entry was “Non-Toxic”.

`CC(C)C1CC(=O)N(CN2CCN(Cc3ccccc3)CC2)C1=O` (centres undefined): the Activity result is recorded as “Non-Toxic”.

In the case of `O=C1CCC(=O)N1CN1CCC(Cc2ccccc2)CC1`, the Activity entry is “Non-Toxic”.

On to `CC1CC(=O)N(CN2CCN(CCO)CC2)C1=O` (centres undefined), for which the Activity entry was “Non-Toxic”.
